US10988459B2 (priority 2015, dated 2021)

Target: human RIP1 kinase domain (2-375) (Homo sapiens (Human), UniProt Q13546)
Test: biochemical
Type: biochemical
Details: tight-binding apparent inhibition constant; human RIP1 kinase domain (2-375) 50 nM, 50 uM ATP, 2 hours; read-out: Ki
Outline: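 50 nM purified kinase domain from baculovirus-infected insect cells, incubated 2 h with compound in 50 mM Hepes pH 7.5, 30 mM MgCl2, 1 mM DTT, 50 uM ATP, 0.002% Brij-35, 0.5% DMSO. ADP formation read by Transcreener FP at 633 nm excitation. Ki^app fitted with the Morrison tight-binding equation.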

Chain of human RIP1 kinase domain (2-375) (Q13546 2-375): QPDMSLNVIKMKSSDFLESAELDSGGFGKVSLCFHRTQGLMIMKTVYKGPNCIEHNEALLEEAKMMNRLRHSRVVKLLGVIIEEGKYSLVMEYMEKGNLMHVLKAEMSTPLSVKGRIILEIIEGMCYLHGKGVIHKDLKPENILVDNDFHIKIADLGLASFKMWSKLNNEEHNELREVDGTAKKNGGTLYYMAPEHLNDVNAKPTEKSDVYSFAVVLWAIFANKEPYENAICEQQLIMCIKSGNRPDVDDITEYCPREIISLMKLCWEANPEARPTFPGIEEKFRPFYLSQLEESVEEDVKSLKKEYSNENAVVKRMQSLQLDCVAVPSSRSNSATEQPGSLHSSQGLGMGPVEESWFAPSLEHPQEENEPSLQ

Row | Ki [nM] | Structure (SMILES)
1 | 7.5 | Cc1cc2n(n1)CC[C@H](NC(=O)c1ncn(Cc3ccccc3F)n1)C(=O)N2C [Example 518, 1-[(2-fluorophenyl)methyl]-N-(6S)-2,4-dimethyl-5-oxo-7,8-dihydro-6H-pyrazolo[1,5-a][1,3]diazepin-6-yl-1,2,4-triazole-3-carboxamide]
2 | 11 | Cc1cc2n(n1)CC[C@H](NC(=O)c1ncn(Cc3cccc(F)c3)n1)C(=O)N2C [Example 519, 1-[(3-fluorophenyl)methyl]-N-(6S)-2,4-dimethyl-5-oxo-7,8-dihydro-6H-pyrazolo[1,5-a][1,3]diazepin-6-yl-1,2,4-triazole-3-carboxamide]
3 | 6 | Cc1cc2n(n1)CC[C@H](NC(=O)c1ncn(Cc3ccccc3Cl)n1)C(=O)N2C [Example 520, 1-[(2-chlorophenyl)methyl]-N-(6S)-2,4-dimethyl-5-oxo-7,8-dihydro-6H-pyrazolo[1,5-a][1,3]diazepin-6-yl-1,2,4-triazole-3-carboxamide]
4 | 3.5 | CN1C(=O)[C@@H](NC(=O)c2ncn(Cc3ccccc3Cl)n2)CCn2nc(C3CC3)cc21 [Example 522]
5 | 72 | CN1C(=O)[C@@H](NC(=O)c2nnc(Cc3cccc(F)c3F)[nH]2)CCn2nc(C(F)(F)F)cc21 [Example 524]
6 | 46 | CN1C(=O)[C@@H](NC(=O)c2ncn(Cc3ccc(F)cc3)n2)CCn2nc(C(F)(F)F)cc21 [Example 525]
7 | 4.8 | CN1C(=O)[C@@H](NC(=O)c2ncn(Cc3ccccc3Cl)n2)CCn2nc(C(F)(F)F)cc21 [Example 528]
8 | 19 | CN1C(=O)[C@@H](NC(=O)c2ncn(Cc3cccc(Cl)c3)n2)CCn2nc(C3CC3)cc21 [Example 538]
9 | 57 | Cc1cc2n(n1)CC[C@H](NC(=O)c1ncc3cnn(-c4ccccc4)c3n1)C(=O)N2C [Example 540, 1-phenyl-N-[(6S)-2,4-dimethyl-5-oxo-7,8-dihydro-6H-pyrazolo[1,5-a][1,3]diazepin-6-yl]pyrazolo[3,4-d]pyrimidine-6-carboxamide]
10 | 5 | Cc1cc2n(n1)CC[C@H](NC(=O)c1nnn(Cc3ccccc3)n1)C(=O)N2C [Example 541, 2-benzyl-N-(6S)-2,4-dimethyl-5-oxo-7,8-dihydro-6H-pyrazolo[1,5-a][1,3]diazepin-6-yltetrazole-5-carboxamide]
11 | 8.5 | CN1C(=O)[C@@H](NC(=O)c2ncn(Cc3ccccc3)n2)CCn2nc(C[C@H]3CC3(F)F)cc21 [Example 547, 1-benzyl-N-(6S)-4-methyl-5-oxo-2-[(1 S)-2,2-difluorocyclopropylmethyl]-7,8-dihydro-6H-pyrazolo[1,5-a][1,3]diazepin-6-yl-1,2,4-triazole-3-carboxamide]
12 | 9.7 | CN1C(=O)[C@@H](NC(=O)c2ncn(Cc3ccccc3)n2)CCn2nc(C[C@@H]3CC3(F)F)cc21 [Example 548, 1-benzyl-N-(6S)-4-methyl-5-oxo-2-[(1R)-2,2-difluorocyclopropylmethyl]-7,8-dihydro-6H-pyrazolo[1,5-a][1,3]diazepin-6-yl-1,2,4-triazole-3-carboxamide]
13 | 210 | CN1C(=O)[C@H](NC(=O)c2nnc(Cc3ccc(F)cc3)[nH]2)CCn2nc(C(F)(F)F)cc21 [Example 550]
14 | 960 | Cc1cc2n(n1)CC[C@H](NC(=O)c1ncc3c(n1)C1(CCOC1)OC3)C(=O)N2C (stereo partly drawn) [Example 551, N-[(6S)-2,4-dimethyl-5-oxo-7,8-dihydro-6H-pyrazolo[1,5-a][1,3]diazepin-6-yl]spiro[5H-furo[3,4-d]pyrimidine-7,3′-tetrahydrofuran]-2-carboxamide]
15 | 110 | Cc1cc2n(n1)CC[C@H](NC(=O)c1ncc3c(n1)C1(CCCC1)OC3)C(=O)N2C [Example 552, N-[(6S)-2,4-dimethyl-5-oxo-7,8-dihydro-6H-pyrazolo[1,5-a][1,3]diazepin-6-yl]spiro[5H-furo[3,4-d]pyrimidine-7,1′-cyclopentane]-2-carboxamide]
16 | 43 | Cc1cc2n(n1)CC[C@H](NC(=O)c1ncn(CC3CC(C)(C)C3)n1)C(=O)N2C [Example 555, 1-[(3,3-dimethylcyclobutyl)methyl]-N-(6S)-2,4-dimethyl-5-oxo-7,8-dihydro-6H-pyrazolo[1,5-a][1,3]diazepin-6-yl-1,2,4-triazole-3-carboxamide]

Further lines, the compound ahead of its results:

Row | Structure (SMILES) | Ki [nM]
17 | CN1C(=O)[C@@H](NC(=O)c2nc3n(n2)CCO[C@@H]3c2ccccc2)COc2ccccc21 [Example 517, (8R)-8-phenyl-N-[(3S)-5-methyl-4-oxo-2,3-dihydro-1,5-benzoxazepin-3-yl]-6,8-dihydro-5H-[1,2,4]triazolo[5,1-c][1,4]oxazine-2-carboxamide] | 660
18 | Cc1cc2n(n1)CC[C@H](NC(=O)c1ncn(Cc3cccc(Cl)c3)n1)C(=O)N2C [Example 521, 1-[(3-chlorophenyl)methyl]-N-(6S)-2,4-dimethyl-5-oxo-7,8-dihydro-6H-pyrazolo[1,5-a][1,3]diazepin-6-yl-1,2,4-triazole-3-carboxamide] | 6.9
19 | CN1C(=O)[C@@H](NC(=O)c2ncn(Cc3cccc(F)c3F)n2)CCn2nc(C(F)(F)F)cc21 [Example 523, 1-[(2,3-difluorophenyl)methyl]-N-(6S)-4-methyl-5-oxo-2-(trifluoromethyl)-7,8-dihydro-6H-pyrazolo[1,5-a][1,3]diazepin-6-yl-1,2,4-triazole-3-carboxamide] | 13
20 | CN1C(=O)[C@@H](NC(=O)c2ncn(Cc3ccccc3F)n2)CCn2nc(C(F)(F)F)cc21 [Example 526] | 20
21 | CN1C(=O)[C@@H](NC(=O)c2ncn(Cc3cccc(F)c3)n2)CCn2nc(C(F)(F)F)cc21 [Example 527] | 23
22 | CN1C(=O)[C@@H](NC(=O)c2ncn(Cc3ccc(F)cc3F)n2)CCn2nc(C(F)(F)F)cc21 [Example 529] | 28
23 | CN1C(=O)[C@@H](NC(=O)c2ncn(Cc3cccc(F)c3)n2)CCn2nc(C3CC3)cc21 [Example 531] | 14
24 | CN1C(=O)[C@@H](NC(=O)c2ncn(Cc3ccc(Cl)cc3)n2)CCn2nc(C(F)(F)F)cc21 [Example 532] | 24
25 | CN1C(=O)[C@@H](NC(=O)c2ncn(Cc3cccc(Cl)c3)n2)CCn2nc(C(F)(F)F)cc21 [Example 533] | 45
26 | CN1C(=O)[C@@H](NC(=O)c2ncn(Cc3cccc(Cl)c3Cl)n2)CCn2nc(C(F)(F)F)cc21 [Example 534] | 7.6
27 | Cc1cn2c(n1)N(C)C(=O)C(NC(=O)c1ncn(Cc3ccccc3)n1)CC2 (centres unmarked) [Example 535, 1-benzyl-N-(2,9-dimethyl-8-oxo-6,7,8,9-tetrahydro-5H-imidazo[1,2-a][1,3]diazepin-7-yl)-1H-1,2,4-triazole-3-carboxamide] | 130
28 | CN1C(=O)[C@@H](NC(=O)c2ncc3cnn(-c4ccccc4)c3n2)COc2ccccc21 [Example 536, phenyl-N-[(3S)-5-methyl-4-oxo-2,3-dihydro-1,5-benzoxazepin-3-yl]pyrazolo[3,4-d]pyrimidine-6-carboxamide] | 3.5
29 | CN1C(=O)[C@@H](NC(=O)c2nccc(C3(O)CCC3)n2)COc2ccccc21 [Example 537, 4-(1-hydroxycyclobutyl)-N-[(3S)-5-methyl-4-oxo-2,3-dihydro-1,5-benzoxazepin-3-yl]pyrimidine-2-carboxamide] | 2100
30 | Cc1cc2n(n1)CC[C@H](NC(=O)c1ncc3cnn(C(C)C)c3n1)C(=O)N2C [Example 539, 1-isopropyl-N-[(6S)-2,4-dimethyl-5-oxo-7,8-dihydro-6H-pyrazolo[1,5-a][1,3]diazepin-6-yl]pyrazolo[3,4-d]pyrimidine-6-carboxamide] | 150
31 | CN1C(=O)[C@@H](NC(=O)c2nnn(Cc3ccccc3)n2)CCn2nc(C3CC3)cc21 [Example 542] | 6.4
32 | Cc1cc2n(n1)CC[C@H](NC(=O)c1ncc3cnn(C4CCCC4)c3n1)C(=O)N2C [Example 543, 1-cyclopentyl-N-[(6S)-2,4-dimethyl-5-oxo-7,8-dihydro-6H-pyrazolo[1,5-a][1,3]diazepin-6-yl]pyrazolo[3,4-d]pyrimidine-6-carboxamide] | 68
33 | Cc1cc2n(n1)CC[C@H](NC(=O)c1ncc3c(n1)C1(CCCOC1)OC3)C(=O)N2C (stereo partly drawn) [Example 544, N-[(6S)-2,4-dimethyl-5-oxo-7,8-dihydro-6H-pyrazolo[1,5-a][1,3]diazepin-6-yl]spiro[5H-furo[3,4-d]pyrimidine-7,3′-tetrahydropyran]-2-carboxamide] | 1200
34 | Cc1cc2n(n1)CC[C@H](NC(=O)c1cc3c(cn1)COC31CCCOC1)C(=O)N2C (stereo partly drawn) [Example 545, N-[(6S)-2,4-dimethyl-5-oxo-7,8-dihydro-6H-pyrazolo[1,5-a][1,3]diazepin-6-yl]spiro[3H-furo[3,4-c]pyridine-1,3′-tetrahydropyran]-6-carboxamide] | 2100
35 | Cc1cnc2n1CCC(NC(=O)c1ncn(Cc3ccccc3)n1)C(=O)N2C (centres unmarked) [Example 546, 1-benzyl-N-(3,9-dimethyl-8-oxo-6,7-dihydro-5H-imidazo[1,2-a][1,3]diazepin-7-yl)-1,2,4-triazole-3-carboxamide] | 220
36 | CCC(C)(O)c1ccnc(C(=O)N[C@H]2COc3ccccc3N(C)C2=O)n1 (stereo partly drawn) [Example 549, 4-(1-hydroxy-1-methyl-propyl)-N-[(3S)-5-methyl-4-oxo-2,3-dihydro-1,5-benzoxazepin-3-yl]pyrimidine-2-carboxamide] | 3700
37 | CN1C(=O)[C@@H](NC(=O)c2nc3n(n2)CCCC3c2ccccc2)COc2ccccc21 (stereo partly drawn) [Example 553, 8-phenyl-N-[(3S)-5-methyl-4-oxo-2,3-dihydro-1,5-benzoxazepin-3-yl]-5,6,7,8-tetrahydro-[1,2,4]triazolo[1,5-a]pyridine-2-carboxamide] | 8.7
38 | Cc1cc2n(n1)CC[C@H](NC(=O)c1nc3n(n1)CCCC3c1ccccc1)C(=O)N2C (stereo partly drawn) [Example 554, 8-phenyl-N-[(6S)-2,4-dimethyl-5-oxo-7,8-dihydro-6H-pyrazolo[1,5-a][1,3]diazepin-6-yl]-5,6,7,8-tetrahydro-[1,2,4]triazolo[1,5-a]pyridine-2-carboxamide] | 330
